Laboratory results as given in patent publication US20120183489A1, “COMPOSITIONS COMPRISING METALLATED MALODOR CONTROL POLYMERS” (priority 2011, published 2012).

Key:
[1] = Malodor control performance, headspace SPME GC/MS, isovaleric acid; details: 5 ml test solution spiked with 5 microliters; 2 h room temperature, 30 min 35° C.; Control = 1.0; pH 7 (ZnCl2 pH 5)
Experimental: (§1) This example illustrates the malodor efficacy of the HMPs of the present invention. Isovaleric acid was chosen as a chemical surrogate for body odor while butylamine was used as a representative for amine-containing odors such as fish, pet urine, etc. Hydrophobic greasy cooking odors were represented by aldehydes such as nonanal. The solutions are first equilibrated at room temperature for 2 hours, then incubated at 35° C. for 30 minutes. The headspace of each vial is finally sampled using a polydimethyl siloxane (PDMS)/Solid-Phase-Micro-Extraction (SPME) fiber and analyzed by GC/MS. The reductions in head space concentrations of odor molecules are measured and the data are normalized to Control. Lower numbers denote […] of malodor molecules present in the solution that are attributed to high malodor control efficacy of polymers.

[2] = test system: microbes of soiled sponge samples; test: Odor prevention through microbe reduction, SOLARIS colorimetric detection on soiled sponge; format: cell-based; details: soiled sponge treated 15 min, dried 12 h; incubated 120 hrs at 37° C.; Control 2.35 hrs
Experimental: The Control formulation containing no malodor control polymer or zinc salt, and Formulations containing individual polymers, zinc salts, and zinc-polymer complexes are compared for their effect on odor prevention, through microbe reduction.
Soiled sponge samples were cut into 1×6 cm strips and treated with the solutions (Table 5) for 15 minutes and dried at ambient temperature for 12 hours. The treated 1 cm strips were then cut into 1×1 cm pieces, placed into SOLARIS scintillation vials, and 1 ml of MOPS buffer was added. The open vials were placed into outer SOLARIS vials containing thymolphthalein blue pH indicator and the vials were finally capped. The sealed vials were placed into a SOLARIS machine and incubated for 120 hrs at 37° C. Colorimetric measurements were conducted according to SOLARIS VIV protocol and the detection times of acidic respiratory byproducts were record (Table 5).

[3] = Malodor control performance, headspace SPME GC/MS, butylamine; details: 5 ml test solution spiked with 5 microliters; 2 h room temperature, 30 min 35° C.; Control = 1.0; pH 7 (ZnCl2 pH 5)
Experimental: as §1

[4] = Sulfur odor control performance, headspace SPME GC/MS, butanethiol; details: 5 ml test solution spiked with 3 ppm; 2 h room temperature, 30 min 35° C.; Control = 1.0
Experimental: (§2) Butanethiol and dipropoyl sulfide were chosen as chemical surrogates for sulfur containing odors such as kitchen (onion/garlic), sewage, etc. These two molecules also enable the assessment of efficacy of polymer for sulfur molecules having different degrees of hydrophobicity (e.g more hydrophobic dipropylsulfide is usually harder to mitigate with hydrophilic technologies such as cyclodextrin). 5 ml test solution was placed in a GC-MS vial and spiked with 3 parts-per-million of butanethiol or dipropylsulfide. The solutions were first equilibrated at room temperature for 2 hours, then incubated at 35° C. for 30 minutes. The headspace of each vial was finally sampled using a PDMS/SPME fiber and analyzed by GC/MS. The reductions in head space concentrations of sulfur molecules were measured and the data were normalized to Control (Table 4).

[5] = Sulfur odor control performance, headspace SPME GC/MS, dipropylsulfide; details: 5 ml test solution spiked with 3 ppm; 2 h room temperature, 30 min 35° C.; Control = 1.0
Experimental: as §2

[6] = Malodor control performance, headspace SPME GC/MS, nonanal; details: 5 ml test solution spiked with 5 microliters; 2 h room temperature, 30 min 35° C.; Control = 1.0; pH 7 (ZnCl2 pH 5)
Experimental: as §1

[7] = benchmark values; cited from earlier work

Molecule | head space concentration of Isovaleric Acid (Body) normalized to Control [1] | Respiratory Byproducts Detection Time [2] [h] | head space concentration of Butylamine (Fish) normalized to Control [3] | head space concentration of Butanethiol normalized to Control [4] | head space concentration of Dipropylsulfide normalized to Control [5] | head space concentration of Nonanal (Grease) normalized to Control [6] | ambient temperature water solubility (benchmark) [7] [g/100 ml]
[Cl-].[Cl-].[Zn+2] [ZnCl2, zinc chloride] | 1.0 | 3.38 | 0.0 | 0.8 | 1.0 | 1.0 | –
OC[C@H]1O[C@@H]2O[C@H]3[C@H](O)[C@@H](O)[C@@H](O[C@H]4[C@H](O)[C@@H](O)[C@@H](O[C@H]5[C@H](O)[C@@H](O)[C@@H](O[C@H]6[C@H](O)[C@@H](O)[C@@H](O[C@H]7[C@H](O)[C@@H](O)[C@@H](O[C@H]8[C@H](O)[C@@H](O)[C@@H](O[C@H]1[C@H](O)[C@H]2O)O[C@@H]8CO)O[C@@H]7CO)O[C@@H]6CO)O[C@@H]5CO)O[C@@H]4CO)O[C@@H]3CO [beta-cyclodextrin] | – | – | – | – | – | – | 1.8
hydroxypropyl modified beta cyclodextrin | – | – | – | – | – | – | ≥ 60
